Laboratory results taken from US20190008773A1, “MAGNETIC FIELD SENSITIVE NANO COMPLEX AND METHOD FOR MANUFACTURING THE SAME” (GWANGJU INSTITUTE OF SCIENCE AND TECHNOLOGY, priority 2017, published 2019).

Test system: cell
Assay: cytotoxicity in a physiological environment (FIG. 8A)
Format: cell-based
Conditions: no alternating magnetic field

`COc1cccc2c1C(=O)c1c(O)c3c(c(O)c1C2=O)C[C@@](O)(C(=O)CO)C[C@@H]3O[C@H]1C[C@H](N)[C@H](O)[C@H](C)O1` [free DOX, doxorubicin] was tested, and the non-specific cytotoxicity was “high”.
